Values quoted from earlier work in patent publication US10694749B2, “Insecticide formulation” (Wellmark International, priority 2016, dated 2020).

Tested on: Mosquito Larvae
Conditions: after ingestion

For “Bacillus thuringiensis israelensis [BTI]”, the “time to death of the first larvae after ingesting the bacteria” value is listed as 15 to 20 min.
